From patent US12227533B2, “Crystalline forms and methods of producing crystalline forms of a compound” (Viking Therapeutics, Inc., priority 2018, dated 2025) come the findings set out here.

Holding throughout (format): physicochemical
A short description of series [1]: Dynamic vapor sorption (DVS). The method, then:
The sample (9.869 mg) was placed on a Pt pan, and the sample was allowed to equilibrate at 25° C. at 50% relative humidity (r.h.) before starting a pre-defined humidity program. The predefined humidity programs include 1.0 hours 50%, from 50% r.h. to 0% r.h.; 5% r.h. per hour, 5 hours at 0% r.h., from 0% r.h. to 93% r.h.; 5% r.h. per hour, 5 hours at 93% r.h., from 93% r.h. to 50% r.h.; and 5% r.h. per hour, 1 hours at 50% r.h.
(§1) (approx. ±0.1%). After storing for 3 days at 96% r.h. at room temperature (Test 49), FIG. 29a, and at 40° C. […] The water uptake measured by the Karl Fischer method was very low (<0.2%). […] The broad background in the XRPD diagram, FIG. 26, is due to water remaining in the sample after careful drying at room temperature following filtration of the suspension. The Karl Fischer result indicates 45% water content.

Series [2] can be described thus: Storage in humidity chamber at 96% r.h., solid form checked by XRPD. The conditions noted are these: for solid form by XRPD after storing in humidity chamber: 96% r.h. The method, then:
Desolvation of the solvates tends to produce the amorphous form.
as §1

Series [3] is described as follows: Karl Fischer moisture analysis after humidity storage. The conditions noted are these: after storing 3 days at 96% r.h. The method, then:
Karl Fischer moisture analyses were carried out according to standard procedures. […] (approx. ±0.1%). After storing for 3 days at 96% r.h. at room temperature (Test 49), FIG. 29a, and at 40° C. […] The water uptake measured by the Karl Fischer method was very low (<0.2%). […] The broad background in the XRPD diagram, FIG. 26, is due to water remaining in the sample after careful drying at room temperature following filtration of the suspension. The Karl Fischer result indicates 45% water content.

A short description of series [4]: Phase equilibration experiment in water, solid form checked by XRPD. The note with it: stirring 3 days, 23° C. (room temperature). The procedure: as §1
Series [5] is described as follows: Phase equilibration experiments in EtOAc/heptane 1:7 v/v. The note with it: 3 days.
Series [6] in a line: Measurement of the approximate solubility at ambient temperature. The note with it: organic solvent or mixture, 23° C. The method, then: In some embodiments, to determine the approximate solubility at room temperature, solvent was added in steps to the solid material. After every addition, the sample was well stirred. The addition of solvent was continued until complete dissolution or until 20 ml of solvent was added.
In other embodiments, aliquots of the test solvent were added to an accurately weighed amount of the compound of Formula I in small increments (usually 100-1000 μL), with sonication until complete dissolution was obtained, if possible. Dissolution was determined visually. The actual solubilities may be higher than reported due to slow dissolution rates or the use of excess solvent. The approximate solubility was determined in mg/mL to the nearest whole number.
The approximate solubility at ambient temperature must be known in order to carry out systematic crystallization experiments.

≈ marks a conversion by molar mass, not a printed value. Some results are limits rather than exact numbers.

As to `Cc1cc(OC[P@@]2(=O)OCC[C@@H](c3cccc(Cl)c3)O2)cc(C)c1Cc1ccc(O)c(C(C)C)c1` [Crystal form C], in series [1] (FIG. 29a), the “water uptake (DVS)” value is on record as “less than 0.2 % by weight”. Moreover, the “solid form by XRPD following DVS analysis” value in series [1] (FIGS. 24 and 25) is “did not transition to a different polymorph”. For the same compound, the hygroscopicity result in series [1] (conclusion from DVS and humidity tests) is given as “non-hygroscopic”. The “solid form by XRPD after storing in humidity chamber” value was “no transformation of the crystal form” in series [2] (23° C. (room temperature), 3 days) and “no transformation of the crystal form” in series [2] (40° C., 3 days). Further, the hydrate formation entry in series [2] (conclusion from DVS, humidity storage and water equilibration) is given as “does not show any evidence of hydrate formation”. For the same compound, in series [3], the “water uptake measured by the Karl Fischer method” value was under 0.2%. Besides, the figures for the “solid form by XRPD after phase equilibration in water” value in series [4] and in series [4] (listed as crystalline Form C) were “no transformation of the crystal form” and “no transformation”, respectively. For the same compound, the “solid form after phase equilibration in EtOAc/heptane 1:7 v/v” value in series [5] (78° C.) and in series [5] (room temperature) was “no transformation” throughout.

Take `Cc1cc(OC[P@@]2(=O)OCC[C@@H](c3cccc(Cl)c3)O2)cc(C)c1Cc1ccc(O)c(C(C)C)c1` [Starting Material A]: the solubility (in general, the dissolved amount per volume that the medium holds) in series [6] (methyl ethyl ketone, thermodynamic from solid, methy ethyl ketone) was over 480 mg/mL; in series [6] (thermodynamic from solid, 1-octanol), over 200 mg/mL; in series [6] (thermodynamic from solid, 2,2,2-trifluoroethanol), about 195 mg/mL (≈ 379 mM); in series [6] (thermodynamic from solid, EtOAc), about 772 mg/mL (≈ 1500 mM); in series [6] (thermodynamic from solid, EtOAc/n-heptane 75:25 v/v), over 200 mg/mL; in series [6] (thermodynamic from solid, N-methyl-2-pyrrolidone (NMP)), over 200 mg/mL. The solubility in series [6] (thermodynamic from solid, THF) is over 384 mg/mL; in series [6] (thermodynamic from solid, THF/water 75:25 v/v) it was 190 mg/mL (≈ 369 mM); in series [6] (thermodynamic from solid, acetic acid), over 200 mg/mL; in series [6] (thermodynamic from solid, acetone/n-heptane 75:25 v/v), over 200 mg/mL; in series [6] (thermodynamic from solid, acetone/water 75:25 v/v), over 200 mg/mL; in series [6] (thermodynamic from solid, acetonitrile), over 480 mg/mL. The solubility in series [6] (thermodynamic from solid, acetonitrile/water 75:25 v/v) is over 200 mg/mL; in series [6] (thermodynamic from solid, chloroform), over 388 mg/mL; in series [6] (thermodynamic from solid, dichloromethane), over 480 mg/mL; in series [6] (thermodynamic from solid, ethanol), over 200 mg/mL; in series [6] (thermodynamic from solid, ethanol/n-heptane 75:25 v/v), over 200 mg/mL; in series [6] (thermodynamic from solid, ethanol/water 75:25 v/v), over 200 mg/mL. In addition, the solubility in series [6] (thermodynamic from solid, methyl nonafluorobutyl ether) was under 39 mg/mL; in series [6] (thermodynamic from solid, methylcyclohexane), under 40 mg/mL; in series [6] (thermodynamic from solid, n-heptane), under 38 mg/mL; in series [6] (thermodynamic from solid, nitrobenzene) it was over 200 mg/mL; in series [6] (thermodynamic from solid, pyridine), over 200 mg/mL; in series [6] (thermodynamic from solid, tert-butyl methyl ether (TBME)) it was over 200 mg/mL. The solubility in series [6] (thermodynamic from solid, tetrahydrofuran (THF)/n-heptane 75:25 v/v) was over 200 mg/mL; in series [6] (thermodynamic from solid, toluene), over 200 mg/mL.

Take `Cc1cc(OC[P@@]2(=O)OCC[C@@H](c3cccc(Cl)c3)O2)cc(C)c1Cc1ccc(O)c(C(C)C)c1` [THF solvate]: the “solid form by XRPD after storing in humidity chamber” value in series [2] (23° C. (room temperature), 8 weeks) was “a mixture of the solvate and the amorphous form”.
